Results from ChEMBL document CHEMBL5131501, “Discovery and evaluation of chalcone derivatives as novel potential anti-Toxoplasma gondii agents” (Eur J Med Chem, 2022).
The source made the active and inactive calls. The calls are words filed in the database; no cut-off is given here.

How the values were obtained:
Toxoplasma gondii [1] = assay: Anti-tachyzoite activity against Toxoplasma gondii RH infected in human HFF cells assessed as mortality rate at 50 uM incubated for 2 hrs by trypan blue staining based light microscopic analysis; format: functional, organism-based
Toxoplasma gondii [2] = assay: Anti-tachyzoite activity against Toxoplasma gondii RH infected in Kunming mouse model assessed as inhibition of growth rate in peritoneal fluid at 100 mg/kg, ip administered daily for 4 days after 4 hrs post infection; format: functional; set-up: scale not given: the % may be the effect or the level left; conditions: time 4 day
Toxoplasma gondii [3] = assay: Anti-tachyzoite activity against Toxoplasma gondii RH infected in kunming mouse model assessed as decrease in serum ALT level at 100 mg/kg, ip administered daily for 4 days after 4 hrs post infection; format: functional, organism-based; conditions: time 4.0 day
Toxoplasma gondii [4] = assay: Anti-tachyzoite activity against Toxoplasma gondii RH infected in kunming mouse model assessed as decrease in serum AST level at 100 mg/kg, ip administered daily for 4 days after 4 hrs post infection; format: functional, organism-based; conditions: time 4.0 day
Toxoplasma gondii [5] = assay: Anti-tachyzoite activity against Toxoplasma gondii RH infected in kunming mouse model assessed as decrease in malondialdehyde lipid peroxidation in liver at 100 mg/kg, ip administered daily for 4 days after 4 hrs post infection; format: functional, organism-based; conditions: time 4.0 day

**Q.** How did the Activity (Toxoplasma gondii [1]) turn out when `O=C(/C=C/c1ccccc1Br)c1cc(F)cc(F)c1` was run?
**A.** Active

**Q.** How did the Activity (Toxoplasma gondii [1]) turn out when `CCNc1ccc(C(=O)/C=C/c2ccccc2Br)cc1` was run?
**A.** Active

**Q.** With `Nc1ccc(C(=O)CCc2ccccc2Br)cc1` as the compound, how does the Activity (Toxoplasma gondii [1]) read?
**A.** Active

**Q.** `Nc1ccc(C(=O)CCc2ccc(Cl)c(Cl)c2)cc1` was tested. Which Activity (Toxoplasma gondii [1]) did it give?
**A.** Active

**Q.** How did the Activity (Toxoplasma gondii [1]) turn out when `COc1ccc(C(=O)/C=C/c2ccc(O)cc2)cc1` was run?
**A.** Active

**Q.** `CO[C@@H]1[C@@H](O[C@@H]2O[C@H](C)[C@@H](O[C@H]3C[C@@](C)(O)[C@@H](O)[C@H](C)O3)[C@H](N(C)C)[C@H]2O)[C@@H](CC=O)C[C@@H](C)[C@@H](O[C@H]2CC[C@H](N(C)C)[C@@H](C)O2)/C=C/C=C/C[C@@H](C)OC(=O)C[C@H]1OC(C)=O` was tested. Which Activity (Toxoplasma gondii [2]) did it give?
**A.** 74.6%

**Q.** What about the Activity (Toxoplasma gondii [3]) of the same compound?
**A.** Active

**Q.** What about the Activity (Toxoplasma gondii [4]) of the same compound?
**A.** Active

**Q.** What about the Activity (Toxoplasma gondii [5]) of the same compound?
**A.** Active

**Q.** How did the Activity (Toxoplasma gondii [1]) turn out when `CCNc1cccc(C(=O)/C=C/c2cccc(OC)c2OC)c1` was run?
**A.** Active

**Q.** Which Activity (Toxoplasma gondii [1]) does the source give for `COc1cccc(/C=C/C(=O)c2cccc(NC(C)=O)c2)c1OC` here?
**A.** Active

**Q.** For `COc1ccc(C(=O)/C=C/c2ccc(O)cc2)cc1OC`, which Activity (Toxoplasma gondii [1]) is on record?
**A.** Active

**Q.** How did the Activity (Toxoplasma gondii [1]) turn out when `CC(=O)Nc1ccc(C(=O)/C=C/c2ccccc2Br)cc1` was run?
**A.** Active

**Q.** For `CCNc1ccc(C(=O)/C=C/c2cccc(OC)c2OC)cc1`, which Activity (Toxoplasma gondii [1]) is on record?
**A.** Active

**Q.** For `CC(C)Nc1ccc(C(=O)/C=C/c2ccc(Cl)c(Cl)c2)cc1`, which Activity (Toxoplasma gondii [1]) is on record?
**A.** Active

**Q.** Which Activity (Toxoplasma gondii [1]) does the source give for `COc1ccc(C(=O)/C=C/c2ccccc2OC)cc1O` here?
**A.** Active

**Q.** How did the Activity (Toxoplasma gondii [1]) turn out when `COc1cccc(/C=C/C(=O)c2cccc(NC(C)C)c2)c1OC` was run?
**A.** Active

**Q.** How did the Activity (Toxoplasma gondii [1]) turn out when `COc1cccc(CCC(=O)c2cccc(N)c2)c1OC` was run?
**A.** Active

**Q.** For `O=C(/C=C/c1ccc(Cl)c(Cl)c1)c1cc(F)cc(F)c1`, which Activity (Toxoplasma gondii [1]) is on record?
**A.** Active

**Q.** For `CC(C)Nc1ccc(C(=O)/C=C/c2ccccc2Br)cc1`, which Activity (Toxoplasma gondii [1]) is on record?
**A.** Active

**Q.** How did the Activity (Toxoplasma gondii [1]) turn out when `O=C(/C=C/c1ccccc1Cl)c1cc(F)cc(F)c1` was run?
**A.** Active

**Q.** Which Activity (Toxoplasma gondii [1]) does the source give for `COc1cccc(/C=C/C(=O)c2ccc(NC(C)=O)cc2)c1OC` here?
**A.** Active

**Q.** With `COc1ccc(C(=O)/C=C/c2ccccc2Cl)cc1` as the compound, how does the Activity (Toxoplasma gondii [1]) read?
**A.** Active

**Q.** With `CC(=O)Nc1ccc(C(=O)/C=C/c2ccc(Cl)c(Cl)c2)cc1` as the compound, how does the Activity (Toxoplasma gondii [1]) read?
**A.** Active

**Q.** `COc1cccc(CCC(=O)c2ccc(N)cc2)c1OC` was tested. Which Activity (Toxoplasma gondii [1]) did it give?
**A.** Active

**Q.** For `COc1ccc(C(=O)/C=C/c2ccccc2Cl)cc1O`, which Activity (Toxoplasma gondii [1]) is on record?
**A.** Active

**Q.** For `CCNc1ccc(C(=O)/C=C/c2ccc(Cl)c(Cl)c2)cc1`, which Activity (Toxoplasma gondii [1]) is on record?
**A.** Active

**Q.** For `COc1cccc(/C=C/C(=O)c2ccc(NC(C)C)cc2)c1OC`, which Activity (Toxoplasma gondii [1]) is on record?
**A.** Active
